Assay results published in ChEMBL document CHEMBL3864161, “5-Aminopyrazole-4-carboxamide analogues are selective inhibitors of Plasmodium falciparum microgametocyte exflagellation and potential malaria transmission blocking agents” (Bioorg Med Chem Lett, 2016).

Columns and labels:
[1] = molecular target: T1, Calmodulin-domain protein kinase 1 (Toxoplasma gondii, UniProt Q9BJF5)
T1 sequence (Q9BJF5 whole entry): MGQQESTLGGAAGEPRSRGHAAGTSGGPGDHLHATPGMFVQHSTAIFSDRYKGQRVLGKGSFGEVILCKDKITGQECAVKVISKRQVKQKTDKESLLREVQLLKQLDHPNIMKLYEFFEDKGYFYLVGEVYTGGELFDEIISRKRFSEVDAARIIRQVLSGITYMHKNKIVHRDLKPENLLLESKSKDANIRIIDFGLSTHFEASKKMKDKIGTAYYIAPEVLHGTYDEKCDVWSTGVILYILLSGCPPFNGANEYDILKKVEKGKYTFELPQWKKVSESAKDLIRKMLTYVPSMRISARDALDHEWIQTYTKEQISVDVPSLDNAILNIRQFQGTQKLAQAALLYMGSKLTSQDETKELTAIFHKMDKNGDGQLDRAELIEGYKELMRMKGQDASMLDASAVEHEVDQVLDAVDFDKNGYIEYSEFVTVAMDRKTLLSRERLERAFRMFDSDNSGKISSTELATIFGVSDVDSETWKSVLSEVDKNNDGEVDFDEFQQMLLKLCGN

[2] = Cytotoxicity against human HepG2 cells assessed as growth inhibition after 48 to 72 hrs by Alamar blue assay; type: toxicity, cell-based
[3] = Cytotoxicity against human CRL8155 cells assessed as growth inhibition after 48 to 72 hrs by Alamar blue assay; type: toxicity, cell-based
[4] = Inhibition of recombinant Plasmodium falciparum CDPK4 S147M mutant using Syntide 2 as substrate assessed as decrease in depletion of ATP by Kinase glo luciferase assay
Plasmodium falciparum [5] = experiment: microbe, parasite or virus in culture; details: read-out: INH
Plasmodium falciparum [6] = experiment: Inhibition of male gametocytes exflagellation of Plasmodium falciparum at 1 uM relative to control; type: functional
[7] = molecular target: Proto-oncogene tyrosine-protein kinase Src (Homo sapiens, UniProt P12931)
Chain of Proto-oncogene tyrosine-protein kinase Src (P12931 2-536 limits assumed): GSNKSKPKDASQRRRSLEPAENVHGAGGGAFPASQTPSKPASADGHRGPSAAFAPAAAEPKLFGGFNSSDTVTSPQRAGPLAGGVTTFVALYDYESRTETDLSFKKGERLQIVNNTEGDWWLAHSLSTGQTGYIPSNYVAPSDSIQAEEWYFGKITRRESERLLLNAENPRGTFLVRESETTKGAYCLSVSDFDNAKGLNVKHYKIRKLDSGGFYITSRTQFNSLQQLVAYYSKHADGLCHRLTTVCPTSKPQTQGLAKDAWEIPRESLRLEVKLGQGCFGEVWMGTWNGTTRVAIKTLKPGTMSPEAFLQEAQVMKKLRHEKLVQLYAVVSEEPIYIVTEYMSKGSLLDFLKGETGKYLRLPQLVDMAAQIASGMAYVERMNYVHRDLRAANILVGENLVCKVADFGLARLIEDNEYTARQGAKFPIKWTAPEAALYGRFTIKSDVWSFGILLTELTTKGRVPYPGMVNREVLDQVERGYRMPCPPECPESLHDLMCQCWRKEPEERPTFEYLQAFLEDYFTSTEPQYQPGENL

SMILES | IC50 [1] [µM] | EC50 [2] [µM] | EC50 [3] [µM] | IC50 [4] [µM] | inhibition at 0.1 µM (Plasmodium falciparum [5]) [%] | inhibition at 1 µM (Plasmodium falciparum [6]) [%] | IC50 [7] [µM]
CCOc1ccc2cc(-c3nn(C4CCCCC4)c(N)c3C(N)=O)ccc2n1 | 0.006 | > 30 | > 30 | > 2 | 39 | 87 | 
CCOc1ccc2cc(-c3nn(C(C)C(C)C)c(N)c3C(N)=O)cnc2c1 (stereo unspecified) | 0.018 |  |  |  |  |  | 
CCOc1ccc2cc(-c3nn(C(C)(C)C)c(N)c3C(N)=O)cnc2c1 |  | > 30 | > 30 | > 2 |  |  | 
CC(C)(C)n1nc(-c2cnc3cc(OC4CC4)ccc3c2)c(C(N)=O)c1N |  | > 30 | > 30 | > 2 |  |  | 
CCOc1ccc2cc(-c3nn(C(C)C(C)(C)CO)c(N)c3C(N)=O)cnc2c1 (stereo unspecified) | 0.024 |  |  |  |  |  | 
CCOc1ccc2cc(-c3nn(C4CCOC4)c(N)c3C(N)=O)cnc2c1 (stereo unspecified) | 0.012 |  |  |  |  |  | > 10
CC(C)n1nc(-c2ccc3nc(OC4CCC4)ccc3c2)c(C(N)=O)c1N | 0.008 | > 30 | > 30 | > 2 |  | 87 | 
CCOc1ccc2cc(-c3nn(CC(C)(C)CO)c(N)c3C(N)=O)cnc2c1 |  | > 30 | > 30 | > 2 | 81 | 87 | > 10
CCOc1ccc2cc(-c3nn(C(C)C)c(N)c3C(N)=O)ccc2n1 | 0.007 |  |  |  |  |  | 
CCOc1ccc2cc(-c3nn(C(C)(C)C)c(N)c3C(N)=O)ccc2c1 |  | > 30 | > 30 | > 2 |  | 87 | 
CC(C)(C)n1nc(-c2ccc3cc(O)ccc3c2)c(C(N)=O)c1N |  | > 30 | > 30 | > 2 | 64 | 87 | 
CCOc1ccc2cc(-c3nn(C(C)C)c(N)c3C(N)=O)cnc2c1 |  | > 30 | > 30 | > 2 |  | 87 | 
CC(C)(C)n1nc(-c2ccc3nc(OC4CC4)ccc3c2)c(C(N)=O)c1N | 0.005 |  |  |  |  |  | 
NC(=O)c1c(-c2ccc3ccccc3c2)nn(CC(F)(F)F)c1N |  | > 30 | > 30 | > 2 |  | 87 | 
COc1ccc2cc(-c3nn(C(C)(C)C)c(N)c3C(N)=O)cnc2c1 |  | > 30 | > 30 | > 2 |  | 87 | 
CCOc1ccc2cc(-c3nn(C(C)C4CC4)c(N)c3C(N)=O)cnc2c1 (stereo unspecified) | 0.014 |  |  |  |  |  | 
